Results on 24 compounds are retold here after patent publication US8865911B2, “Compounds and their use as BACE inhibitors” (Astrazeneca AB, priority 2010, dated 2014).

For one assay, the target named is human β-Secretase (Homo sapiens (Human), UniProt P56817). The experiment in a line: Diluted TR-FRET assay. In kind it is biochemical. As to conditions: values marked ^a; 50 times less enzyme, 6.5 h reaction time at r.t. in the dark; read-out: IC50 in TR-FRET assay (IC50 from the diluted FRET assay). As to the method: The β-secretase enzyme used in the TR-FRET is prepared as follows: The cDNA for the soluble part of the human β-Secretase (AA 1-AA 460) was cloned using the ASP2-Fc10-1-IRES-GFP-neoK mammalian expression vector. The gene was fused to the Fc domain of IgG1 (affinity tag) and stably cloned into HEK 293 cells.
Chain of human β-Secretase (P56817 22-460): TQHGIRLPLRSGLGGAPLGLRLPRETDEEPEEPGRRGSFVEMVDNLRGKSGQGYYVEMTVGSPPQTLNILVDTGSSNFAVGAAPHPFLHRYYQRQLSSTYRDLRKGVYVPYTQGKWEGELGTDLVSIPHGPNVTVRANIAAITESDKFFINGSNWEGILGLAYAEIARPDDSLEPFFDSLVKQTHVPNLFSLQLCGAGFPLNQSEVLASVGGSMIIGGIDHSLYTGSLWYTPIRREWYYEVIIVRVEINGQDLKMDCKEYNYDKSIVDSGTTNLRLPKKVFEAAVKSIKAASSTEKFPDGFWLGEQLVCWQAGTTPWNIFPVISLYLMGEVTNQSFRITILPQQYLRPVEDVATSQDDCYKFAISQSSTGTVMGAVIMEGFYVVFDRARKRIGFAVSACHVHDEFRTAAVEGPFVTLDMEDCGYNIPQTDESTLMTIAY
The robotic systems Biomek FX and Velocity 11 were used for all liquid handling and the enzyme and substrate solutions were kept on ice until they were placed in the robotic system. Enzyme (9 μl) was added to the plate then 1 μl of compound in dimethylsulphoxide was added, mixed and pre-incubated for 10 minutes. […] The reaction was stopped with the addition of Stop solution (7 μl, NaAcetate, pH 9). […] The dimethylsulphoxide control, instead of test compound, defined the 100% activity level and 0% activity was defined by wells lacking enzyme (replaced with reaction buffer).
For orientation: In TR-FRET formats the signal depends on donor and acceptor labels being close together.
One may read the IC50 as the midpoint of a concentration-inhibition curve. As to `CO[C@H]1CC[C@]2(CC1)Cc1ccc(-c3cc(Cl)cnc3C)cc1C21N=C(C)C(N)=N1` (stereo partly drawn) [Example 62, (1r,4r)-6′-(5-Chloro-2-methylpyridin-3-yl)-4-methoxy-5″-methyl-3′H-dispiro[cyclohexane-1,2′-indene-1′,2″-imidazol]-4″-amine], the concentration for half-maximal inhibition (IC50) amounted to 19 nM. Still for that read-out and setting: the figure for `CC#Cc1cc(-c2ccc3c(c2)C2(N=C(C)C(N)=N2)[C@]2(CC[C@H](OC)CC2)C3)ccn1` (stereo partly drawn) [Example 20y, (1r,4r)-4-Methoxy-5″-methyl-6′-[2-(prop-1-yn-1-yl)pyridin-4-yl]-3′H-dispiro[cyclohexane-1,2′-indene-1′,2″-imidazol]-4″-amine] is 4.9 nM; for `CO[C@H]1CC[C@]2(CC1)Cc1ccc(NC(=O)c3ncc(Cl)cc3C)cc1C21N=C(C)C(N)=N1` (stereo partly drawn) [Example 20w, N-[(1r,4r)-4″-Amino-4-methoxy-5″-methyl-3′H-dispiro[cyclohexane-1,2′-indene-1′,2″-imidazol]-6′-yl]-5-chloro-3-methylpyridine-2-carboxamide] it is 18 nM; for `CCC1=NC2(N=C1N)c1cc(-c3cncc(C#N)c3)ccc1C[C@]21CC[C@@H](OC)CC1` (stereo partly drawn) [Example 69, 5-[(1r,4r)-4″-Amino-5″-ethyl-4-methoxy-3′H-dispiro[cyclohexane-1,2′-indene-1′,2″-imidazol]-6′-yl]pyridine-3-carbonitrile] it is 21 nM.

Regarding `CC1=NC2(N=C1N)c1cc(-c3cc(Cl)cc(C#N)c3)ccc1C[C@]21CC[C@@H](OC(F)F)CC1` (stereo partly drawn) [Example 108, 3-[(1r,4r)-4″-Amino-4-(difluoromethoxy)-5″-methyl-3′H-dispiro[cyclohexane-1,2′-indene-1′,2″-imidazol]-6′-yl]-5-chlorobenzonitrile], the half-maximal inhibitory concentration (IC50) amounted to 1.3 nM. Same read-out and setting: the figure for `CO[C@H]1CC[C@]2(CC1)Cc1ccc(-c3cc(C)cc(C#N)c3)cc1C21N=C(C)C(N)=N1` (stereo partly drawn) [Example 74, 3-[(1r,4r)-4″-Amino-4-methoxy-5″-methyl-3′H-dispiro[cyclohexane-1,2′-indene-1′,2″-imidazol]-6′-yl]-5-methylbenzonitrile] is 2.6 nM; for `CO[C@H]1CC[C@]2(CC1)Cc1ccc(-c3cncc(F)c3)cc1C21N=C(C)C(N)=N1` (stereo partly drawn) [Example 20f, (1r,4r)-6′-(5-Fluoropyridin-3-yl)-4-methoxy-5″-methyl-3′H-dispiro[cyclohexane-1,2′-indene-1′,2″-imidazol]-4″-amine] it is 5.5 nM. `CO[C@H]1CC[C@]2(CC1)Cc1ccc(-c3cc(F)ccc3F)cc1[C@@]21N=C(C)C(N)=N1` [Example 99, (1r,1′R,4R)-6′-(2,5-Difluorophenyl)-4-methoxy-5′-methyl-3′H-dispiro[cyclohexane-1,2′-indene-1′,2″-imidazol]-4″-amine]: the IC50 turned out to be 3.9 nM. On the same count and under the same terms, the result for `CO[C@H]1CC[C@]2(CC1)Cc1ccc(-c3ccccc3)cc1[C@@]21N=C(C)C(N)=N1` [Example 90, (1r,1′R,4R)-4-Methoxy-5″-methyl-6′-phenyl-3′H-dispiro[cyclohexane-1,2′-indene-1′,2″-imidazol]-4″-amine] reads 13 nM. As to `CCc1cc(C#N)cc(-c2ccc3c(c2)C2(N=C(C)C(N)=N2)[C@]2(CC[C@H](OC)CC2)C3)c1` (stereo partly drawn) [Example 95, 3-[(1r,4r)-4″-Amino-4-methoxy-5″-methyl-3′H-dispiro[cyclohexane-1,2′-indene-1′,2″-imidazol]-6′-yl]-5-ethylbenzonitrile], the IC50 stood at 5.3 nM. As for `COC1CCC2(CC1)Oc1ccc(-c3cncc(Cl)c3)cc1C21N=C(C)C(N)=N1` (stereo not drawn) [Example 30d, 5′-(5-Chloropyridin-3-yl)-4-methoxy-5′-methyldispiro[cyclohexane-1,2′-[1]benzofuran-3′,2″-imidazol]-4″-amine], the IC50 came out at 5.2 nM. Same read-out and setting: the result for `CC#Cc1cncc(-c2ccc3c(c2)C2(N=C(C)C(N)=N2)C2(CCC(OC)CC2)O3)c1` (stereo not drawn) [Example 30c] reads 1.4 nM; that for `COc1ccc(F)c(-c2ccc3c(c2)[C@@]2(N=C(C)C(N)=N2)[C@]2(CC[C@H](OC)CC2)C3)c1` [Example 98, (1r,1′R,4R)-6′-(2-Fluoro-5-methoxyphenyl)-4-methoxy-5″-methyl-3′H-dispiro[cyclohexane-1,2′-indene-1′,2″-imidazol]-4″-amine], 1.5 nM; that for `CC#Cc1ccnc(-c2ccc3c(c2)C2(N=C(C)C(N)=N2)[C@]2(CC[C@H](OC)CC2)C3)c1` (stereo partly drawn) [Example 20b, (1r,4r)-4-Methoxy-5″-methyl-6′-[4-(prop-1-yn-1-yl)pyridin-2-yl]-3′H-dispiro[cyclohexane-1,2′-indene-1′,2″-imidazol]-4″-amine], 2.3 nM. In the case of `COc1cc(C#N)cc(-c2ccc3c(c2)[C@@]2(N=C(C)C(N)=N2)[C@]2(CC[C@H](OC(F)F)CC2)C3)c1` (racemic) [Example 106, 3-[(1r,4r)-4″-Amino-4-(difluoromethoxy)-5″-methyl-3′H-dispiro[cyclohexane-1,2′-indene-1′,2″-imidazol]-6′-yl]-5-methoxybenzonitrile], the concentration for half-maximal inhibition (IC50) is 1 nM. For `CO[C@H]1CC[C@]2(CC1)Cc1ccc(-c3cc(C#N)cc(C(F)F)c3)cc1[C@@]21N=C(C)C(N)=N1` [Example 86, 3-[(1r,1′R,4R)-4″-Amino-4-methoxy-5″-methyl-3′H-dispiro[cyclohexane-1,2′-indene-1′,2″-imidazol]-6′-yl]-5-(difluoromethyl)benzonitrile], the half-inhibitory concentration (IC50) was 1.5 nM.

Another assay deals with sAPPβ release, SH-SY5Y cells. The experiment in a line: sAPPβ release assay. Format: cell-based. As to conditions: Homo sapiens, SH-SY5Y, 17 h, compounds incubated 17 h, MSD detection. The protocol: Thaw cells and seed at a conc. of around 10000 cells/well in DMEM/F-12 with Glutamax, 10% FCS and 1% non-essential amino acids to a 384-well tissue culture treated plate, 100 μL cell susp/well. […] The cell medium was removed, followed by addition of 30 μL compound diluted in DMEM/F-12 with Glutamax, 10% FCS, 1% non-essential amino acids and 1% PeSt to a final conc. of 1% DMSO. The compounds were incubated with the cells for 17 h (overnight) at 37° C., 5% CO2. Meso Scale Discovery (MSD) plates were used for the detection of sAPPβ release. MSD sAPPβ plates were blocked in 1% BSA in Tris wash buffer (40 μL/well) for 1 h on shake at r.t. and washed 1 time in Tris wash buffer (40 μL/well). 20 μL of medium was transferred to the pre-blocked and washed MSD sAPPβ microplates, and the cell plates were further used in an ATP assay to measure cytotoxicity. The MSD plates were incubated with shaking at r.t. for 2 h and the media discarded. 10 μL detection antibody was added (1 nM) per well followed by incubation with shaking at r.t. for 2 h and then discarded. 40 μL Read Buffer was added per well and the plates were read in a SECTOR Imager.
`CC#Cc1cncc(-c2ccc3c(c2)C2(N=C(N)C(CC)=N2)[C@]2(CC[C@H](OC)CC2)C3)c1` (single isomer, unassigned) [Example 68 Isomer 1, (1r,4r)-5″-ethyl-4-methoxy-6′-[5-(prop-1-yn-1-yl)pyridin-3-yl]-3′H-dispiro[cyclohexane-1,2′-indene-1′,2″-imidazol]-4″-amine] displayed a concentration for half-maximal inhibition (IC50) of 0.38 nM. `CCC1=NC2(N=C1N)c1cc(-c3cncc(Cl)c3)ccc1C[C@]21CC[C@@H](OC)CC1` (single isomer, unassigned) [Example 66 Isomer 1, (1r,4r)-6′-(5-chloropyridin-3-yl)-5″-ethyl-4-methoxy-3′H-dispiro[cyclohexane-1,2′-indene-1′,2″-imidazol]-4″-amine]: half-maximal inhibition (IC50) was put at 1.6 nM.

The assay is the same for the next values; noted with them: compounds incubated 17 h, MSD detection.
The compound `CC1=NC2(CC3(CCCOC3)Oc3ccc(-c4cccc(Cl)c4)cc32)N=C1N` (single isomer, unassigned) [Example 46a Isomer 1, 6′-(3-Chlorophenyl)-5-methyl-5″,6″-dihydro-4″H-dispiro[imidazole-2,4′-chromene-2′,3″-pyran]-4-amine] registered a half-maximal inhibitory concentration (IC50) of 419 nM. The same measure, in the same setting: the result for `CO[C@H]1CC[C@]2(CC1)Cc1ccc(C#CC(C)(C)C)cc1C21N=C(C)C(N)=N1` (single isomer, unassigned; isomer 1) [Example 20h Isomer 1, (1r,4r)-6′-(3,3-dimethylbut-1-yn-1-yl)-4-methoxy-5″-methyl-3′H-dispiro[cyclohexane-1,2′-indene-1′,2″-imidazol]-4″-amine] reads 277 nM.

The compound `CO[C@H]1CC[C@]2(CC1)Cc1ccc(-c3cc(F)cc(C#N)c3)cc1C21N=C(C)C(N)=N1` (single isomer, unassigned; isomer 1) [Example 76 Isomer 1, 3-[(1r,4r)-4″-amino-4-methoxy-5″-methyl-3′H-dispiro[cyclohexane-1,2′-indene-1′,2″-imidazol]-6′-yl]-5-fluorobenzonitrile] gave an IC50 of 1.2 nM. Still for that read-out and setting: the result for `CO[C@H]1CC[C@]2(CC1)Cc1ccc(-c3cc(Br)cc(C#N)c3)cc1C21N=C(C)C(N)=N1` (single isomer, unassigned; isomer 1) [Example 94 Isomer 1, 3-[(1r,4r)-4″-Amino-4-methoxy-5″-methyl-3′H-dispiro[cyclohexane-1,2′-indene-1′,2″-imidazol]-6′-yl]-5-bromobenzonitrile] reads 0.17 nM.

Still in this assay, the particulars now being: compounds incubated 17 h, MSD detection, listed as 71 Isomer 1.
The compound `CCC1=NC2(N=C1N)c1cc(-c3cccc(C#N)c3)ccc1C[C@]21CC[C@@H](OC)CC1` (single isomer, unassigned) [Example 71 Isomer 1, 3-[(1r,4r)-4″-amino-5″-ethyl-4-methoxy-3′H-dispiro-[cyclohexane-1,2′-indene-1′,2″-imidazol]-6′-yl]benzonitrile] registered a half-maximal inhibitory concentration (IC50) of 5.2 nM.

The assay is the same for the next values; noted with them: compounds incubated 17 h, MSD detection, listed as 71 Isomer 2.
Consider `CCC1=NC2(N=C1N)c1cc(-c3cccc(C#N)c3)ccc1C[C@]21CC[C@@H](OC)CC1` (single isomer, unassigned) [Example 71 Isomer 2, 3-[(1r,4r)-4″-amino-5″-ethyl-4-methoxy-3′H-dispiro-[cyclohexane-1,2′-indene-1′,2″-imidazol]-6′-yl]benzonitrile], for which the IC50 was 763 nM.
